The text below walks through data of patent US7737177B2, “Processes for preparing crystalline and amorphous mupirocin calcium” (priority 2001, dated 2010).

Like-named read-outs stand apart in the source and are kept apart here.

For data set [1] the following is noted: according to the maker of Bactroban, cited from earlier work.
The nature of data set [2]: thermal stability reported by Baker et al. (purity after storage). It counts as physicochemical. The text has this: The Baker et al. patents disclose preparing amorphous form of mupirocin calcium by crystallization from an aqueous solution consisting of 50% methanol followed by trituration with dry ether.
Baker et al. expresses its assay in relation to psuedomonic acid. The assay of the present invention is expressed differently, as illustrated by Table-1.
In connection with amorphous mupirocin calcium, the assay of the present invention can be converted into the assay expressed as in Baker et al. by multiplying with a factor of 0.9637. This 89.9% assay of Baker et al. corresponds to a 93.29% assay as calculated by the method of the present invention.
In connection with mupirocin calcium dihydrate, the 92.1% assay of Baker et al. corresponds to a 98.88% assay as expressed by the present invention.

The conditions of data set [3]: cited from earlier work; for Purity after storage: expressed as a percentage of pure free pseudomonic acid.
Data set [4] is described as follows: thermal stability on storage (HPLC assay, Karl Fischer water, HPLC impurities). It counts as physicochemical. Details: Total Impurity: unit not given here. How it is done: As used herein, the term “assay” refers to a determination of purity/presence of a quantity of a substance as described by the European Pharmacopoeia (“EP”). EUROPEAN PHARMACOPOEIA, Fourth Edition, pp 1602-1604, Council of Europe, Strasbourg, 2001. The assay is done with high pressure liquid chromatography (“HPLC”).
As used herein, the term “total impurity” refers to the sum of all areas under the peaks of impurities as described by the European Pharmacopoeia. It is determined by another HPLC method and is different than the assay.
The present invention provides for amorphous mupirocin calcium with high thermal stability. Thermal stability is defined as the ability to resist chemical degradation during storage, especially in light of the conditions during storage. The higher purity and […] of amorphous mupirocin calcium makes it less susceptible to chemical degradation during storage.
Glass ampoule in Aluminum laminate bag with silica gel was used as the packing system.
Relative humidity was exactly 60%.
The water content was measured by the Karl Fischer method.
High pressure liquid chromatography (HPLC) was performed on a Zorbax® C-8 (5 um; 250×4.6 mm), reverse phase column with ammonium acetate buffer solution in water: tetrahydrofuran mixture as eluent. Detected by U.V. spectroscopy at λ=240 nm.
The assay also used the same HPLC instruments.

The conditions of data set [5]: Baker et al., Column 1, Lines 31-33; cited from earlier work.
[6] abbreviates: 1 Kg batch, 0 months at 2–8° C.
Where [7] appears, read: 1 Kg batch, 0.5 months at 2–8° C.
Where [8] appears, read: 1 Kg batch, 0.5 months at 25° C.
The mark [9] stands for this setting: 1 Kg batch, 1.0 months at 2–8° C.
Where [10] appears, read: 1 Kg batch, 2.0 months at 2–8° C.
Where [11] appears, read: 187.2 grams batch, 2° C.-8° C. 60% RH, 0 month.
The mark [12] stands for this setting: 187.2 grams batch, 2° C.-8° C. 60% RH, 1 month.
[13] abbreviates: 187.2 grams batch, 2° C.-8° C. 60% RH, 2 months.
The mark [14] stands for this setting: 187.2 grams batch, 2° C.-8° C. 60% RH, 3 months.
Setting [15] is: 187.2 grams batch, 25° C./60% RH, 0 month.
Where [16] appears, read: 187.2 grams batch, 25° C./60% RH, 1 month.
Where [17] appears, read: 187.2 grams batch, 25° C./60% RH, 2 months.
[18] abbreviates: 187.2 grams batch, 25° C./60% RH, 3 months.

For `C/C(=C\C(=O)OCCCCCCCCC(=O)[O-])C[C@@H]1OC[C@H](C[C@@H]2O[C@H]2[C@@H](C)[C@H](C)O)[C@@H](O)[C@H]1O.C/C(=C\C(=O)OCCCCCCCCC(=O)[O-])C[C@@H]1OC[C@H](C[C@@H]2O[C@H]2[C@@H](C)[C@H](C)O)[C@@H](O)[C@H]1O.O.O.[Ca+2]` [mupirocin calcium], the side effects entry in data set [1] (administered intravenously at 250 mg) and in data set [1] (administered orally at 500 mg) was “without any major side effects” throughout.
As for `C/C(=C\C(=O)OCCCCCCCCC(=O)O)C[C@@H]1OC[C@H](C[C@@H]2O[C@H]2[C@@H](C)[C@H](C)O)[C@@H](O)[C@H]1O` [Crystalline mupirocin calcium dihydrate, mupirocin calcium dihydrate], the Purity after storage in data set [2] (2 weeks, 37° C., expressed as a percentage of mupirocin calcium dihydrate) is on record as 99.08%; in data set [2] (2 weeks, 50° C., expressed as a percentage of mupirocin calcium dihydrate) it was 97.60%; in data set [2] (2 weeks, 80° C., expressed as a percentage of mupirocin calcium dihydrate) it was 92.95%; in data set [2] (8 days, 80° C., expressed as a percentage of mupirocin calcium dihydrate), 95.91%; in data set [2] (10 days, 50° C., expressed as a percentage of mupirocin calcium dihydrate) it was 97.79%; in data set [3] (2 weeks, 37° C., calcium dihydrate), 92.28%. The Purity after storage in data set [3] (2 weeks, 50° C., calcium dihydrate) is 90.90%; in data set [3] (2 weeks, 80° C., calcium dihydrate) it was 86.57%; in data set [3] (8 days, 80° C., calcium dihydrate) it was 89.33%; in data set [3] (10 days, 50° C., calcium dihydrate) it was 91.08%.
For the compound `C/C(=C\C(=O)OCCCCCCCCC(=O)[O-])C[C@@H]1OC[C@H](C[C@@H]2O[C@H]2[C@@H](C)[C@H](C)O)[C@@H](O)[C@H]1O.C/C(=C\C(=O)OCCCCCCCCC(=O)[O-])C[C@@H]1OC[C@H](C[C@@H]2O[C@H]2[C@@H](C)[C@H](C)O)[C@@H](O)[C@H]1O.O.O.[Ca+2]` [Anhydrous amorphous mupirocin calcium, mupirocin calcium], the Purity after storage in data set [2] (2 weeks, 37° C., expressed as a percentage of mupirocin calcium anhydrous) is 91.14%; in data set [2] (2 weeks, 50° C., expressed as a percentage of mupirocin calcium anhydrous), 74.71%; in data set [2] (2 weeks, 80° C., expressed as a percentage of mupirocin calcium anhydrous), 13.05%; in data set [2] (8 days, 80° C., expressed as a percentage of mupirocin calcium anhydrous) it was 27.05%; in data set [2] (10 days, 50° C., expressed as a percentage of mupirocin calcium anhydrous), 77.70%; in data set [3] (2 weeks, 37° C.) it was 87.83%. Also, the Purity after storage in data set [3] (2 weeks, 50° C.) was 72.0%; in data set [3] (2 weeks, 80° C.) it was 12.58%; in data set [3] (8 days, 80° C.), 26.07%; in data set [3] (10 days, 50° C.) it was 74.88%. In data set [4] (after storage for one month), the “level of impurity MUP II (impurity E in the EP)” value is listed as “more than 1%”. The “total level of impurities (not assay)” value in data set [4] (after two months of storage, FIGS. 9 and 10) is given as “more than 3.5%”. Also, the thermal stability entry in data set [3] (Baker et al., Column 1, Lines 31-33) was “poor thermal stability”. Moreover, the “deterioration at high temperatures” value in data set [3] (chart in Columns 8 and 9 of the '093 patent) is reported as “rapid deterioration at high temperatures”. Moreover, in data set [5], the water solubility result is given as “sparingly water soluble”.
For the compound `C/C(=C\C(=O)OCCCCCCCCC(=O)[O-])C[C@@H]1OC[C@H](C[C@@H]2O[C@H]2[C@@H](C)[C@H](C)O)[C@@H](O)[C@H]1O.C/C(=C\C(=O)OCCCCCCCCC(=O)[O-])C[C@@H]1OC[C@H](C[C@@H]2O[C@H]2[C@@H](C)[C@H](C)O)[C@@H](O)[C@H]1O.O.O.[Ca+2]` [amorphous mupirocin calcium, mupirocin calcium], the Assay in data set [4] (setting [6]) is 98.5; in data set [4] (1 Kg batch, 0 months at 25° C.) it was 98.5; in data set [4] (setting [7]) it was 95.2; in data set [4] (setting [8]) it was 97.4; in data set [4] (1 Kg batch, 1 month at 25° C.) it was 98.3; in data set [4] (setting [9]), 95.5. Besides, the Assay in data set [4] (setting [10]) is listed as 96.7; in data set [4] (1 Kg batch, 2 months at 25° C.), 96.5; in data set [4] (after 2 months of storage at about 25° C. and at about 2-8° C.) it was “about 96%”. Moreover, the Water in data set [4] (setting [6]) was determined as 1.2; in data set [4] (1 Kg batch, 0 months at 25° C.), 1.5; in data set [4] (setting [7]), 1.3; in data set [4] (setting [8]), 1.2; in data set [4] (1 Kg batch, 1 month at 25° C.), 1.9; in data set [4] (setting [9]), 1.9. Besides, the Water in data set [4] (setting [10]) is reported as 1.6; in data set [4] (1 Kg batch, 2 months at 25° C.), 1.5; in data set [4] (setting [11]), 0.6%; in data set [4] (setting [12]), 0.8%; in data set [4] (setting [13]), 0.7%; in data set [4] (setting [14]) it was 1.1%. The Water in data set [4] (setting [15]) is 0.6%; in data set [4] (setting [16]) it was 0.8%; in data set [4] (setting [17]), 0.8%; in data set [4] (setting [18]), 1.0%. Also, the “Total Impurity” value in data set [4] (setting [7]) is 2.71; in data set [4] (setting [8]), 2.83; in data set [4] (1 Kg batch, 1 month at 25° C.) it was 3.18; in data set [4] (setting [9]) it was 2.88; in data set [4] (setting [10]), 2.86; in data set [4] (1 Kg batch, 2 months at 25° C.) it was 3.21. For the same compound, the “Assay (HPLC)” value is reported as 96.0% in data set [4] (setting [11]); 95.6% in data set [4] (setting [12]); 95.3% in data set [4] (setting [13]); 96.1% in data set [4] (setting [14]); 96.0% in data set [4] (setting [15]); 97.5% in data set [4] (setting [16]). Moreover, the results for the “Assay (HPLC)” value in data set [4] (setting [17]) and in data set [4] (setting [18]) were 94.1% and 95.9%, respectively. The Description result in data set [4] (setting [11]) was “White”; in data set [4] (setting [12]), “White”; in data set [4] (setting [13]) it was “White”; in data set [4] (setting [14]), “White”; in data set [4] (setting [15]), “White powder”; in data set [4] (setting [16]), “White”. The Description result in data set [4] (setting [17]) and in data set [4] (setting [18]) was “White” in each case. The “Impurities (HPLC) Imp. C” value in data set [4] (setting [11]) is recorded as 1.31%; in data set [4] (setting [13]), 1.32%; in data set [4] (setting [14]), 1.35%; in data set [4] (setting [15]), 1.31%; in data set [4] (setting [17]) it was 1.34%; in data set [4] (setting [18]), 1.37%. The “Impurities (HPLC) MUP II” value came out at 0.31% in data set [4] (setting [11]); 0.41% in data set [4] (setting [13]); 0.42% in data set [4] (setting [14]); 0.31% in data set [4] (setting [15]); 0.77% in data set [4] (setting [17]); 0.89% in data set [4] (setting [18]). For the same compound, the “Impurities (HPLC) Total Impurities” value in data set [4] (setting [11]) was determined as 2.22%; in data set [4] (setting [13]) it was 2.43%; in data set [4] (setting [14]) it was 2.62%; in data set [4] (setting [15]) it was 2.22%; in data set [4] (setting [17]), 3.02%; in data set [4] (setting [18]), 3.25%. The total impurity content result in data set [4] (after 2 months) was “about 3%”. Also, the “total level of impurity (not assay)” value in data set [4] (after at least two months of storage at 25° C.) is reported as “less than 3.5%”. Also, the “level of impurity MUP II (impurity E in the EP)” value in data set [4] (storage at 25° C. and RH 60% for at least two months) was no more than 1%.
